From patent EP4656630A1, “NOVEL COMPOUND AS LYSYL-TRNA SYNTHETASE 1 INHIBITOR, AND USE THEREOF” (Zymedi Co., Ltd., priority 2023, dated 2024)

Legend:
Raw 264.7 cells = assay: LN (Laminin 421)-induced immune cell migration, Transwell; format: cell-based; conditions: Mus musculus, RAW264.7; for inhibition at 3 µM: 3 µM compound, LN (Laminin 421 1 µg/ml), 24 hours, % inhibition compared to control group, read-out: Migration inhibitor % (3uM)
Procedure: Cell migration was assessed based on the method described in the prior literature (Park, S. G. et al. Human lysyl-tRNA synthetase is secreted to trigger proinflammatory response. Proceedings of the National Academy of Sciences, 2005, 102.18: 6356-6361.). The specific experimental method is as follows. A Transwell (Corning#3421-5µm pore) was coated with gelatin (0.5mg/ml), and then Raw 264.7 cells (1 x 10^5 cells/well) were seeded in the upper chamber. Serum-free medium (Serum Free DMEM, 500 µl) containing LN (Laminin 421 1 µg/ml) was added to the lower chamber. Each compound was treated at a concentration of 3µM in the upper chamber. After 24 hours, the cells were fixed with 70% methanol for 30 minutes and stained with 50% hematoxylin for 30 minutes. Non-migrating cells on the upper side of the membrane were removed with a cotton swab, and the membrane was mounted on a slide. Migrating cells on the lower side of the membrane were observed under a high-power microscope, and the number of cells was measured from the obtained images and expressed as the inhibition rate (% inhibition) compared to the control group.

[1] = Microsomal metabolic stability, rat; format: in vitro ADME
Procedure: (§1) Metabolic stability (MS) evaluation was conducted for the selected compounds by measuring in vitro stability in two species, rat and human, according to the microsomal stability measurement method. As a result, it was identified that MS varied depending on the transformation of parts A, B, and C.

Raw264.7 cells = assay: KARS1-induced trans-migration assay; format: cell-based, mouse; conditions: Mus musculus, RAW264.7; for inhibition at 1 µM: 1 µM compound, read-out: KARS1-induced Raw264.7 cell migration (% inhibition, 1uM)
Procedure: C0001 inhibits the binding of KARS1 and 67LR, thereby blocking the migration of monocytes/macrophages and suppressing inflammation. Accordingly, a trans-migration assay using mouse macrophages (Raw264.7) was conducted to preliminarily screen drugs that inhibit the migration of monocytes/macrophages.
Based on this, when KARS1 protein was directly treated externally instead of LN, the trans-migration of Raw264.7 was induced, and the cell migration inhibitory effect of the KARS1 inhibitor C0001 was confirmed. It was verified that C0001, which specifically binds to KARS1, can inhibit cell migration by binding to extracellular KARS1, in addition to the mechanism of inhibiting cell membrane migration of KARS1 induced by laminin and its binding to 67LR, thereby enabling this analysis to be used as a direct method for evaluating in vitro activity against KARS1.
Next, preliminary candidate substances with high inhibitory activity at 1 µM were treated at concentrations of 0.1~4 µM for analysis.

[2] = Rat pharmacokinetics (po and iv) and bioavailability; format: in vivo; conditions: for Cmax / Tmax / half-life / AUC: in vivo; for AUC value increase at 30 mpk: 30 mpk compared with 10 mpk
Procedure: For this purpose, formulations suitable for peroral administration (po) and intravenous injection (iv) for each compound were first selected to ensure stable PK progression.
The formulation was selected under the condition of maintaining a clear solution for more than 1 hour at 10 and 30 mpk doses based on po, and the iv formulation was modified when iv use was not possible based on po (Table 8).
To confirm the oral administration potential of the selected compounds, 10 mpk rat po PK was conducted. The PK profile and key indicators after administering 10 mpk to five compounds, C0001, 25, 41, 42, and 43, are shown in Figure 3 and Table 9.
Based on the previous 10 mpk po rat PK results, 30 mpk po rat PK was conducted for four compounds, C0001, 25, 41, and 43, to confirm changes in the blood PK profile of the substances with increasing doses.
For these compounds, 2 mpk iv rat PK was conducted to calculate bioavailability (BA) (Table 11).

KARS1 and 37LR = molecular target: T1, KARS1 and 37LR (Homo sapiens, UniProt Q15046); assay: Cell-free ELISA of KARS1 and 37LR (laminin receptor) binding; conditions: 10 µM compound, 1 hour, plate coated with KARS1 (1-207aa), LRF
T1 construct: KARS1 (1-207aa)
T1 sequence (Q15046 1-207): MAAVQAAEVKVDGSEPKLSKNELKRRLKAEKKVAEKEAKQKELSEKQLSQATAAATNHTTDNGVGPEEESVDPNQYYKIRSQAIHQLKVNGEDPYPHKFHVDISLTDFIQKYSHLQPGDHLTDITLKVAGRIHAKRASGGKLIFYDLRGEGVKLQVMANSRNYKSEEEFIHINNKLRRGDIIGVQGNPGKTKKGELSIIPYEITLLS
Procedure: Next, based on the mechanism of action, a cell-free ELISA analysis was conducted to select compounds with high inhibitory activity on the binding of KARS1 and LR (laminin receptor).

[3] = Microsomal metabolic stability, human; format: in vitro ADME
Procedure: as §1

Organ distribution = format: in vivo; set-up: Organ distribution Plasma (ng/ml): concentration or dose not given beside the values
[4] = S9 metabolic stability, human; format: in vitro ADME
Procedure: (§2) Among these, secondary MS measurements were conducted for Compound 25 (C0047), Compound 43 (C0216), and C0001 using the S9 method. This test measured the remaining % at 30, 45, and 60 minutes for four species: mouse, rat, dog, and human.

[5] = S9 metabolic stability, rat; format: in vitro ADME
Procedure: as §2

[6] = S9 metabolic stability, dog; format: in vitro ADME
Procedure: as §2

[7] = S9 metabolic stability, mouse; format: in vitro ADME
Procedure: as §2

For `COc1ccc(CCN(c2nc3cccc(F)c3s2)C(C)c2ccc(N3CC[C@H](C(=O)O)C3)cc2)cc1` (stereo partly drawn) [Compound 42, (3S)-1-(4-(1-((7-fluorobenzo[d]thiazol-2-yl)(4-methoxyphenethyl)-amino)ethyl)phenyl)pyrrolidine-3-carboxylic acid], the inhibition at 3 µM (Raw 264.7 cells) was 63.1%, the “Metabolic stability (% remaining at 30 min) Rat” value [1] was 43% and the inhibition at 1 µM (Raw264.7 cells) was 85.8%. For the same compound, the Cmax ([2]; 10 mg/kg, po, 10 mpk) was 240 ng/mL, the Tmax ([2]; 10 mg/kg, po, 10 mpk) was 0.67 h and the half-life ([2]; 10 mg/kg, po, 10 mpk) was 1.32 h. For the same compound, the AUC ([2]; po, 10 mg/kg, 10 mpk) was 1420 ng·h/mL, the inhibition at 10 µM (KARS1 and 37LR) was 65.6% and the “Metabolic stability (% remaining at 30 min) Human” value [3] was 76%.

With `COc1ccc(CCN(Cc2ccc(N3CC[C@H](C(=O)O)C3)cc2)c2nc3cccc(F)c3s2)cc1` [Compound 25, (S)-1-(4-(((7-fluorobenzo[d]thiazol-2-yl)(4-methoxyphenethyl)amino)-methyl)phenyl)pyrrolidine-3-carboxylic acid] the inhibition at 3 µM (Raw 264.7 cells) was 83%, the EC50 (Raw 264.7 cells; LN-induced cell migration, read-out: EC50 for cell migration inhibition induced by LN) was 5.96 µM and the “Metabolic stability (% remaining at 30 min) Rat” value [1] was 77%. For the same compound, the “Organ distribution (ratio per plasma) Brain” value (Organ distribution; 0.5 h) was 0.06, the “Organ distribution (ratio per plasma) Brain” value (Organ distribution; 6.0 h) was 0.54 and the “Organ distribution (ratio per plasma) Heart” value (Organ distribution; 0.5 h) was 0.29. The “Organ distribution (ratio per plasma) Heart” value (Organ distribution; 6.0 h) was 0.52, the “Organ distribution (ratio per plasma) Kidney” value (Organ distribution; 0.5 h) was 0.38 and the “Organ distribution (ratio per plasma) Kidney” value (Organ distribution; 6.0 h) was 0.79. The “Organ distribution (ratio per plasma) Liver” value (Organ distribution; 0.5 h) was 0.85, the “Organ distribution (ratio per plasma) Liver” value (Organ distribution; 6.0 h) was 3.15 and the “Organ distribution (ratio per plasma) Lung” value (Organ distribution; 0.5 h) was 0.41. The “Organ distribution (ratio per plasma) Lung” value (Organ distribution; 6.0 h) was 1.05, the “Organ distribution Plasma (ng/ml)” value (Organ distribution; 0.5 h) was 29,901 ng/ml and the “Organ distribution Plasma (ng/ml)” value (Organ distribution; 6.0 h) was 1,499 ng/ml. The inhibition at 1 µM (Raw264.7 cells) was 96.2%, the EC50 (Raw264.7 cells; KARS1-induced cell migration, 0.1~4 µM) was 0.57 µM and the “Metabolic stability (% remaining at each time) Human (min) 30” value ([4]; 30 min) was 70.1%. For the same compound, the “Metabolic stability (% remaining at each time) Human (min) 45” value ([4]; 45 min) was 75.8%, the “Metabolic stability (% remaining at each time) Human (min) 60” value ([4]; 60 min) was 66.8% and the Cmax ([2]; 10 mg/kg, po, 10 mpk) was 1750 ng/mL. It also gave a Tmax ([2]; 10 mg/kg, po, 10 mpk) of 1 h, a half-life ([2]; 10 mg/kg, po, 10 mpk) of 1.34 h and a Cmax ([2]; 30 mg/kg, po, 30 mpk) of 14400 ng/mL. It also gave a Tmax ([2]; 30 mg/kg, po, 30 mpk) of 2 h, a half-life ([2]; 30 mg/kg, po, 30 mpk) of 0.76 h and an AUC ([2]; iv, 2 mg/kg, 2 mpk) of 2410 ng·h/mL. For the same compound, the AUC ([2]; po, 10 mg/kg, 10 mpk) was > 5000 ng·h/mL, the AUC ([2]; po, 10 mg/kg, 10 mpk (Table 11)) was 5410 ng·h/mL and the AUC ([2]; po, 30 mg/kg, 30 mpk) was 53000 ng·h/mL. For the same compound, the AUC ([2]; po, 30 mg/kg, 30 mpk (Table 11)) was 53000 ng·h/mL, the “BA (%)” value ([2]; po, 10 mpk against iv 2 mpk) was 44.9% and the “AUC (ng*h/ml)” value ([2]; po, 10 mpk, listed as 25 (C0047), 10 mg/kg) was 5,109 ng*h/ml. For the same compound, the “BA (%)” value ([2]; po, 30 mpk against iv 2 mpk) was 146.6%, the “AUC value increase at 30 mpk” value ([2]; po) was 10.4 times and the inhibition at 10 µM (KARS1 and 37LR) was 69.2%. For the same compound, the “Metabolic stability (% remaining at each time) Rat (min) 30” value ([5]; 30 min) was 86.0%, the “Metabolic stability (% remaining at each time) Rat (min) 45” value ([5]; 45 min) was 84.1% and the “Metabolic stability (% remaining at each time) Rat (min) 60” value ([5]; 60 min) was 88.5%. The “Metabolic stability (% remaining at each time) Dog (min) 30” value ([6]; 30 min) was 100.6%, the “Metabolic stability (% remaining at each time) Dog (min) 45” value ([6]; 45 min) was 93.5% and the “Metabolic stability (% remaining at each time) Dog (min) 60” value ([6]; 60 min) was 97.0%. For the same compound, the “Metabolic stability (% remaining at 30 min) Human” value [3] was 66%, the “Metabolic stability (% remaining at each time) Mouse (min) 30” value ([7]; 30 min) was 70.5% and the “Metabolic stability (% remaining at each time) Mouse (min) 45” value ([7]; 45 min) was 71.7%. The “Metabolic stability (% remaining at each time) Mouse (min) 60” value ([7]; 60 min) was 60.9%.

For `COc1ccc(CCN(c2nc3cccc(F)c3s2)C(C)c2cccc(N3CC[C@@H](C(=O)O)C3)c2)cc1` (stereo partly drawn) [Compound 41, (3R)-1-(3-(1-((7-fluorobenzo[d]thiazol-2-yl)(4-methoxyphenethyl)-amino)ethyl)phenyl)pyrrolidine-3-carboxylic acid], the inhibition at 3 µM (Raw 264.7 cells) was 58.7%, the “Metabolic stability (% remaining at 30 min) Rat” value [1] was 58% and the inhibition at 1 µM (Raw264.7 cells) was 90.2%. For the same compound, the Cmax ([2]; 10 mg/kg, po, 10 mpk) was 4230 ng/mL, the Tmax ([2]; 10 mg/kg, po, 10 mpk) was 0.83 h and the half-life ([2]; 10 mg/kg, po, 10 mpk) was 1.96 h. It also gave a Cmax ([2]; 30 mg/kg, po, 30 mpk) of 6470 ng/mL, a Tmax ([2]; 30 mg/kg, po, 30 mpk) of 1 h and a half-life ([2]; 30 mg/kg, po, 30 mpk) of 2.13 h. The AUC ([2]; po, 30 mg/kg, 30 mpk) was 28500 ng·h/mL, the “AUC (ng*h/ml)” value ([2]; po, 10 mpk, 10 mg/kg) was “exceeding 5,000 ng*h/ml” and the “AUC (ng*h/ml)” value ([2]; po, 10 mpk, listed as 41 (C0189), 10 mg/kg) was 11,859 ng*h/ml. The “AUC value increase at 30 mpk” value ([2]; po) was “approximately 2.4 times”, the inhibition at 10 µM (KARS1 and 37LR) was 69.6% and the “Metabolic stability (% remaining at 30 min) Human” value [3] was 51%.

For `COc1ccc(CCN(Cc2ccc(N3CCC(C(=O)O)C3)cc2)c2nc3cccc(F)c3s2)cc1` (stereo not drawn) [Compound 13, 1-(4-(((7-fluorobenzo[d]thiazol-2-yl)(4-methoxyphenethyl)amino)-methyl)phenyl)pyrrolidine-3-carboxylic acid], the inhibition at 3 µM (Raw 264.7 cells) was 90%, the “Metabolic stability (% remaining at 30 min) Rat” value [1] was 90% and the inhibition at 1 µM (Raw264.7 cells) was 93.4%. The inhibition at 10 µM (KARS1 and 37LR) was 83.9% and the “Metabolic stability (% remaining at 30 min) Human” value [3] was 74%.
